Values of other authors, collected in EP2727592A1 (Kücükgüzel, Sükriye Güniz, priority 2012, dated 2014).

Experiments:
[1] = in vivo
[2] = not given; remark: listed apart in the source

CC(=O)Nc1ccc(O)cc1 [PAR, 4-hydroxyacetanilide]
eliminated without transformation [1]: 5% | turns into N-acetyl-p-benzoquinonimine (NAPQI) with oxidation [1]: 5% | turns into glucuronide and sulphate conjugate [1]: 90% | time to reach the highest amount of plasma concentration (customary dose orally): 90 min | Elimination half life (in vivo): 3.3 h | Oral bioavailability (oral): 63 - 89% | dose leading to nausea, vomiting, stomach ache, then liver failure and acute liver necrosis ([2]; adults): more than 10 g | paediatric toxic dose ([2]; children): 200 mg/kg | dose at which the fatality risk shall increase ([2]; taken in one go): over 20 g
